According to PMC12396409, “Screening and hit evaluation of a microbial metabolite library against the pathogenic Plasmodium falciparum and Toxoplasma gondii parasites” (International Journal for Parasitology: Drugs and Drug …, 2025):
Read-outs that look alike come from different tables or passages of the source.

Legend:
[1] = test system: P. falciparum 3D7 parasites; test: P. falciparum growth inhibition assay, 1-cycle (72 h treatment), SYBR DNA staining (library screen at 2 μg/mL and dose-response); format: cell-based, Plasmodium falciparum; conditions: for activity at 2 µg/mL: Plasmodium falciparum
[2] = test system: P. falciparum 3D7 parasites; test: P. falciparum growth inhibition assay, 2-cycle (120 h treatment), delayed-death screen and dose-response; format: cell-based, Plasmodium falciparum; conditions: for activity at 2 µg/mL: Plasmodium falciparum
[3] = test system: T. gondii RH strain (RH-Tub-eYFP) tachyzoites; test: microbe, parasite or virus in culture; format: cell-based, Toxoplasma gondii; conditions: 72 h; for percent parasite growth at 2 µg/mL: Toxoplasma gondii
[4] = library screen at 2 μg/mL, 72 h, % growth, replicate 1
[5] = library screen at 2 μg/mL, 72 h, % growth, replicate 2
[6] = library screen at 2 μg/mL, 120 h, % growth, replicate 1
[7] = library screen at 2 μg/mL, 120 h, % growth, replicate 2
[8] = library screen at 2 μg/mL, % growth, replicate 1
[9] = library screen at 2 μg/mL, % growth, replicate 2
[10] = P. falciparum, 72 h, screen at 2 μg/mL, replicate 1
[11] = P. falciparum, 72 h, screen at 2 μg/mL, replicate 2
[12] = P. falciparum, 120 h, screen at 2 μg/mL, replicate 1
[13] = P. falciparum, 120 h, screen at 2 μg/mL, replicate 2
[14] = T. gondii, screen at 2 μg/mL, replicate 1
[15] = T. gondii, screen at 2 μg/mL, replicate 2
[16] = T. gondii, screen at 2 μg/mL, replicate 1, read-out: Tg_72h_%Growth_Rep1
[17] = T. gondii, screen at 2 μg/mL, replicate 2, read-out: Tg_72h_%Growth_Rep2

COC(=O)[C@@]12C(=O)C(C)C(=O)[C@]1(C)C(C)=C[C@H]1[C@]3(C=O)CC[C@H](OC(C)=O)C(C)(C)[C@H]3CC[C@@]12C (stereo partly drawn) [Andrastin A]
Pf_72h_%Growth_Rep1 [1, 4]: 79.79% | Pf_72h_%Growth_Rep2 [1, 5]: 84.23% | Pf_120h_%Growth_Rep1 [2, 6]: 133.36% | Pf_120h_%Growth_Rep2 [2, 7]: 82.36% | Tg_72h_%Growth_Rep1 [3, 8]: 90.21% | Tg_72h_%Growth_Rep2 [3, 9]: 88.06%

C=CC(C)(C)C12CC3C(=O)Nc4ccccc4C(=O)N3C1Nc1ccccc12 (stereo not drawn) [Aszonalenin]
Pf_72h_%Growth_Rep1 [1, 4]: 81.55% | Pf_72h_%Growth_Rep2 [1, 5]: 89.57% | Pf_120h_%Growth_Rep1 [2, 6]: 90.27% | Pf_120h_%Growth_Rep2 [2, 7]: 94.67% | Tg_72h_%Growth_Rep1 [3, 8]: 156.81% | Tg_72h_%Growth_Rep2 [3, 9]: 98.02%

CN1C(=O)c2ccccc2NC(=O)[C@@H]1Cc1ccccc1 [Cyclopeptine]
Pf_72h_%Growth_Rep1 [1, 10]: 53.40% | Pf_72h_%Growth_Rep2 [1, 11]: 63.93% | Pf_120h_%Growth_Rep1 [2, 12]: 15.88% | Pf_120h_%Growth_Rep2 [2, 13]: 61.17% | Tg_72h_%Growth_Rep1 [3, 14]: 139.33% | Tg_72h_%Growth_Rep2 [3, 15]: 93.22%

C=C1[C@@H](C)[C@H]2[C@H](Cc3ccccc3)NC(=O)[C@]23[C@H](OC(C)=O)/C=C/[C@@](C)(O)C(=O)[C@@H](C)C/C=C/[C@H]3[C@@H]1O [Cytochalasin D]
activity at 2 µg/mL ([1]; 3D7, 72 h, P. falciparum, 72 h, screen at 2 μg/mL, replicate 1, read-out: Pf_72h_%Growth_Rep1): 6.33% | activity at 2 µg/mL ([1]; 3D7, 72 h, P. falciparum, 72 h, screen at 2 μg/mL, replicate 2, read-out: Pf_72h_%Growth_Rep2): 2.44% | activity at 2 µg/mL ([2]; 3D7, 120 h, P. falciparum, 120 h, screen at 2 μg/mL, replicate 1, read-out: Pf_120h_%Growth_Rep1): 3.12% | activity at 2 µg/mL ([2]; 3D7, 120 h, P. falciparum, 120 h, screen at 2 μg/mL, replicate 2, read-out: Pf_120h_%Growth_Rep2): 4.41% | percent parasite growth at 2 µg/mL [3, 16]: 2.17% | percent parasite growth at 2 µg/mL [3, 17]: 2.65%

C[C@H]1C(=O)N2c3ccccc3[C@@]3(O)C[C@@H]4C(=O)N[C@](C)(c5nc6ccccc6c(=O)n54)N1[C@@H]23 [Fumiquinazoline D]
activity at 2 µg/mL ([1]; 3D7, library screen at 2 μg/mL, 72 h, % growth, replicate 1, read-out: Pf_72h_%Growth_Rep1): 76.9% | activity at 2 µg/mL ([1]; 3D7, library screen at 2 μg/mL, 72 h, % growth, replicate 2, read-out: Pf_72h_%Growth_Rep2): 108% | activity at 2 µg/mL ([2]; 3D7, library screen at 2 μg/mL, 120 h, % growth, replicate 1, read-out: Pf_120h_%Growth_Rep1): 80.2% | activity at 2 µg/mL ([2]; 3D7, library screen at 2 μg/mL, 120 h, % growth, replicate 2, read-out: Pf_120h_%Growth_Rep2): 101% | percent parasite growth at 2 µg/mL ([3]; library screen at 2 μg/mL, % growth, replicate 1, read-out: Tg_72h_%Growth_Rep1): 124% | percent parasite growth at 2 µg/mL ([3]; library screen at 2 μg/mL, % growth, replicate 2, read-out: Tg_72h_%Growth_Rep2): 109%

C=C1C(=O)C[C@@H]2[C@H]3CC[C@@H](C(=O)O)[C@@]12CC3(C)C [Terrecyclic Acid]
Pf_72h_%Growth_Rep1 [1, 10]: 17.94% | Pf_72h_%Growth_Rep2 [1, 11]: 13.49% | Pf_120h_%Growth_Rep1 [2, 12]: 35.11% | Pf_120h_%Growth_Rep2 [2, 13]: 10.18% | Tg_72h_%Growth_Rep1 [3, 14]: 40.31% | Tg_72h_%Growth_Rep2 [3, 15]: 50.53%

C[C@@H]1CC[C@H]2C(C)(C)[C@H](O)CC[C@]2(C)[C@@]12Cc1c(O)cc3c(c1O2)CNC3=O [Stachybotrylactam]
Pf_72h_%Growth_Rep1 ([1]; P. falciparum, 72 h, parasite screen 2 μg/mL, % growth, replicate 1): 26.98% | Pf_72h_%Growth_Rep2 ([1]; P. falciparum, 72 h, parasite screen 2 μg/mL, % growth, replicate 2): 44.84% | Pf_120h_%Growth_Rep1 ([2]; P. falciparum, 120 h, parasite screen 2 μg/mL, % growth, replicate 1): 94.74% | Pf_120h_%Growth_Rep2 ([2]; P. falciparum, 120 h, parasite screen 2 μg/mL, % growth, replicate 2): 25.01% | Tg_72h_%Growth_Rep1 ([3]; T. gondii, parasite screen 2 μg/mL, % growth, replicate 1): 105.88% | Tg_72h_%Growth_Rep2 ([3]; T. gondii, parasite screen 2 μg/mL, % growth, replicate 2): 102.71%

CCCCCC[C@H]1C(=O)O[C@H](C)[C@@H](O)/C=C/C=C/C=C/C=C/C=C(\C)[C@@H](O)C[C@H](O)C[C@H](O)C[C@H](O)C[C@H](O)C[C@H](O)C[C@@H]1O [Filipin II]
Pf_72h_%Growth_Rep1 [1, 4]: 85.18% | Pf_72h_%Growth_Rep2 [1, 5]: 87.84% | Pf_120h_%Growth_Rep1 [2, 6]: 90.65% | Pf_120h_%Growth_Rep2 [2, 7]: 90.94% | Tg_72h_%Growth_Rep1 [3, 8]: 129.59% | Tg_72h_%Growth_Rep2 [3, 9]: 103.40%

CC1(C)C=Cc2cc3ccc(=O)oc3cc2O1 [Xanthyletin]
activity at 2 µg/mL ([1]; 3D7, P. falciparum, 72 h, screen at 2 μg/mL, replicate 1, read-out: Pf_72h_%Growth_Rep1): 88.6% | activity at 2 µg/mL ([1]; 3D7, P. falciparum, 72 h, screen at 2 μg/mL, replicate 2, read-out: Pf_72h_%Growth_Rep2): 22.4% | activity at 2 µg/mL ([2]; 3D7, P. falciparum, 120 h, screen at 2 μg/mL, replicate 1, read-out: Pf_120h_%Growth_Rep1): 106% | activity at 2 µg/mL ([2]; 3D7, P. falciparum, 120 h, screen at 2 μg/mL, replicate 2, read-out: Pf_120h_%Growth_Rep2): 81.1% | percent parasite growth at 2 µg/mL [3, 16]: 146% | percent parasite growth at 2 µg/mL [3, 17]: 65.7%

O=c1cc2ccocc-2o1 [BIA-K1792]
Pf_72h_%Growth_Rep1 ([1]; P. falciparum 3D7, 72 h, library screen at 2 μg/mL, % growth, replicate 1): 80.31% | Pf_72h_%Growth_Rep2 ([1]; P. falciparum 3D7, 72 h, library screen at 2 μg/mL, % growth, replicate 2): 115.37% | Pf_120h_%Growth_Rep1 ([2]; P. falciparum 3D7, 120 h, library screen at 2 μg/mL, % growth, replicate 1): 89.46% | Pf_120h_%Growth_Rep2 ([2]; P. falciparum 3D7, 120 h, library screen at 2 μg/mL, % growth, replicate 2): 104.67% | Tg_72h_%Growth_Rep1 ([3]; T. gondii RH, library screen at 2 μg/mL, % growth, replicate 1): 114.69% | Tg_72h_%Growth_Rep2 ([3]; T. gondii RH, library screen at 2 μg/mL, % growth, replicate 2): 93.25%
